Converted amounts (≈) assume the structure as drawn.
Assays:
Experiment in all cases: In vitro antibacterial activity test (broth microdilution)
Assay type in all cases: cell-based
P. aeruginosa 6065Y = settings: Pseudomonas aeruginosa, 6065Y
How it was run: (§1)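 MIC90 (ug/mL) determined by CLSI broth microdilution against clinical isolates, defined as lowest concentration inhibiting visible growth of 90% of organisms after incubation versus untreated control. Compounds tested from 0.0626 to 128 ug/mL final, with 2.5% (V/V) DMSO.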

K. pneumoniae β10 = settings: Klebsiella pneumoniae
How it was run: as §1

M. catarrhalis 2524 = settings: Moraxella catarrhalis, 2524
How it was run: as §1

A. baumannii 49 = settings: Acinetobacter baumannii, 49, A. baumannii 49
How it was run: as §1

E. coli β4 = settings: Escherichia coli
How it was run: as §1

P. aeruginosa 43 = settings: Pseudomonas aeruginosa, 43
How it was run: as §1

P. aeruginosa 1912E = settings: Pseudomonas aeruginosa, 1912E
How it was run: as §1

A. baumannii 52 = settings: Acinetobacter baumannii, 52
How it was run: as §1

K. pneumoniae β14 = settings: Klebsiella pneumoniae
How it was run: as §1

K. pneumoniae β13 = settings: Klebsiella pneumoniae
How it was run: as §1

A. baumannii 46 = settings: Acinetobacter baumannii, 46, A. baumannii 46
How it was run: as §1

K. pneumoniae β11 = settings: Klebsiella pneumoniae
How it was run: as §1

P. aeruginosa 40 = settings: Pseudomonas aeruginosa, 40
How it was run: as §1

P. aeruginosa 37 = settings: Pseudomonas aeruginosa, 37, P. aeruginosa 37
How it was run: as §1

E. cloacae β19 = settings: Enterobacter cloacae
How it was run: as §1

[1] = system: A. calcoaceticus ATCC15473; settings: Acinetobacter calcoaceticus, ATCC15473, A. calcoaceticus ATCC15473
How it was run: as §1

E. coli AG100 = settings: Escherichia coli, AG100
How it was run: as §1

K. pneumoniae β9 = settings: Klebsiella pneumoniae
How it was run: as §1

K. pneumoniae 2011E = settings: Klebsiella pneumoniae, 2011E
How it was run: as §1

| SMILES | MIC90 (P. aeruginosa 6065Y) [µg/mL] | MIC90 (K. pneumoniae β10) [µg/mL] | MIC90 (M. catarrhalis 2524) [µg/mL] | MIC90 (A. baumannii 49) [µg/mL] | MIC90 (E. coli β4) [µg/mL] | MIC90 (P. aeruginosa 43) [µg/mL] | MIC90 (P. aeruginosa 1912E) [µg/mL] | MIC90 (A. baumannii 52) [µg/mL] | MIC90 (K. pneumoniae β14) [µg/mL] | MIC90 (K. pneumoniae β13) [µg/mL] | MIC90 (A. baumannii 46) [µg/mL] | MIC90 (K. pneumoniae β11) [µg/mL] | MIC90 (P. aeruginosa 40) [µg/mL] | MIC90 (P. aeruginosa 37) [µg/mL] | MIC90 (E. cloacae β19) [µg/mL] | MIC90 [1] [µg/mL] | MIC90 (E. coli AG100) [µg/mL] | MIC90 (K. pneumoniae β9) [µg/mL] | MIC90 (K. pneumoniae 2011E) [µg/mL] |
| --- | --- | --- | --- | --- | --- | --- | --- | --- | --- | --- | --- | --- | --- | --- | --- | --- | --- | --- | --- |
| CC(C)(O/N=C(\C(=O)N[C@@H]1C(=O)N2C(C(=O)[O-])=C(/C=C/C[n+]3cnc(N)c(NCCN)c3)CSC12)c1nc(N)sc1Cl)C(=O)O (some centres unmarked) [Compound 54] | 16 (≈ 23.5 µM) | 0.5 (≈ 0.734 µM) | < 0.0625 | 128 (≈ 188 µM) | 0.5 (≈ 0.734 µM) | 64 (≈ 94 µM) | 2 (≈ 2.94 µM) | 32 (≈ 47 µM) | 1 (≈ 1.47 µM) | 1 (≈ 1.47 µM) | 4 (≈ 5.87 µM) | 2 (≈ 2.94 µM) | 4 (≈ 5.87 µM) | 4 (≈ 5.87 µM) | 4 (≈ 5.87 µM) | 1 (≈ 1.47 µM) | 0.25 (≈ 0.367 µM) | 1 (≈ 1.47 µM) | 1 (≈ 1.47 µM) |
| CC(C)(O/N=C(\C(=O)N[C@@H]1C(=O)N2C(C(=O)[O-])=C(/C=C/C[n+]3cnc(N)c(NCCN)c3)CSC12)c1nsc(N)n1)C(=O)O (some centres unmarked) [Compound 55] | 8 (≈ 12.4 µM) | 0.125 (≈ 0.193 µM) | < 0.0625 | 64 (≈ 98.8 µM) | < 0.0625 | > 128 | 1 (≈ 1.54 µM) | 64 (≈ 98.8 µM) | 0.5 (≈ 0.772 µM) | 0.25 (≈ 0.386 µM) | 0.5 (≈ 0.772 µM) | 128 (≈ 198 µM) | 1 (≈ 1.54 µM) | 4 (≈ 6.18 µM) | 8 (≈ 12.4 µM) | 0.125 (≈ 0.193 µM) | < 0.0625 | 2 (≈ 3.09 µM) | < 0.0625 |
| CC(C)(O/N=C(\C(=O)N[C@@H]1C(=O)N2C(C(=O)[O-])=C(/C=C/C[n+]3cnc(N)c(NCCCN)c3)CSC12)c1nsc(N)n1)C(=O)O (some centres unmarked) [Compound 56] | 16 (≈ 24.2 µM) | 1 (≈ 1.51 µM) | < 0.0625 | 32 (≈ 48.4 µM) | 1 (≈ 1.51 µM) | 64 (≈ 96.7 µM) | 2 (≈ 3.02 µM) | 16 (≈ 24.2 µM) | 2 (≈ 3.02 µM) | 1 (≈ 1.51 µM) | 4 (≈ 6.04 µM) | 2 (≈ 3.02 µM) | 8 (≈ 12.1 µM) | 8 (≈ 12.1 µM) | 4 (≈ 6.04 µM) | 1 (≈ 1.51 µM) | 0.5 (≈ 0.756 µM) | 1 (≈ 1.51 µM) | 2 (≈ 3.02 µM) |
| CC(C)(O/N=C(\C(=O)N[C@@H]1C(=O)N2C(C(=O)[O-])=C(/C=C/C[n+]3cnc(N)c(NCCCN)c3)CSC12)c1nc(N)sc1Cl)C(=O)O (some centres unmarked) [Compound 57] | 16 (≈ 23 µM) | 0.25 (≈ 0.36 µM) | < 0.0625 | 64 (≈ 92.1 µM) | 0.125 (≈ 0.18 µM) | > 128 | 0.5 (≈ 0.719 µM) | 64 (≈ 92.1 µM) | 1 (≈ 1.44 µM) | 0.5 (≈ 0.719 µM) | 1 (≈ 1.44 µM) | 128 (≈ 184 µM) | 4 (≈ 5.75 µM) | 8 (≈ 11.5 µM) | 8 (≈ 11.5 µM) | 0.5 (≈ 0.719 µM) | 0.125 (≈ 0.18 µM) | 1 (≈ 1.44 µM) | 0.25 (≈ 0.36 µM) |
| CC(C)(O/N=C(\C(=O)N[C@@H]1C(=O)N2C(C(=O)[O-])=C(/C=C/C[n+]3cnc(N)c(NCCCCN)c3)CSC12)c1nc(N)sc1Cl)C(=O)O (some centres unmarked) [Compound 58] | 32 (≈ 45.1 µM) | 2 (≈ 2.82 µM) | < 0.0625 | 32 (≈ 45.1 µM) | 2 (≈ 2.82 µM) | > 128 | 8 (≈ 11.3 µM) | 64 (≈ 90.2 µM) | 4 (≈ 5.64 µM) | 4 (≈ 5.64 µM) | 32 (≈ 45.1 µM) | 8 (≈ 11.3 µM) | 16 (≈ 22.6 µM) | 32 (≈ 45.1 µM) | 8 (≈ 11.3 µM) | 4 (≈ 5.64 µM) | 0.5 (≈ 0.705 µM) | 8 (≈ 11.3 µM) | 2 (≈ 2.82 µM) |

Source: patent US9630977B2, “Cephalosporin derivatives and pharmaceutical compositions thereof” (Legochem Biosciences, Inc., priority 2011, dated 2017)
